Assay results: patent publication US20170210738A1, “GLUCOSE TRANSPORT INHIBITORS” (Bayer Pharma Aktiengesellschaft, priority 2014, published 2017)

target: T1, GLUT1 (Homo sapiens, UniProt P11166); experiment: Indirect measurement of GLUT activity by quantification of intracellular ATP levels: glucose induced ATP increase (GLUT1 inhibition); format: cell-based; conditions: DLD1 cells; 1 mM glucose, 1 uM Rotenone, 15 min; CellTiter-Glo ATP levels; IC50 values standardized to cytochalasin B IC50 values; read-out: IC50 regarding glucose induced ATP increase (GLUT1 inhibition)
T1 construct: endogenous in cells; host or cells: DLD1 or CHO-K1
T1 sequence (P11166 1-492): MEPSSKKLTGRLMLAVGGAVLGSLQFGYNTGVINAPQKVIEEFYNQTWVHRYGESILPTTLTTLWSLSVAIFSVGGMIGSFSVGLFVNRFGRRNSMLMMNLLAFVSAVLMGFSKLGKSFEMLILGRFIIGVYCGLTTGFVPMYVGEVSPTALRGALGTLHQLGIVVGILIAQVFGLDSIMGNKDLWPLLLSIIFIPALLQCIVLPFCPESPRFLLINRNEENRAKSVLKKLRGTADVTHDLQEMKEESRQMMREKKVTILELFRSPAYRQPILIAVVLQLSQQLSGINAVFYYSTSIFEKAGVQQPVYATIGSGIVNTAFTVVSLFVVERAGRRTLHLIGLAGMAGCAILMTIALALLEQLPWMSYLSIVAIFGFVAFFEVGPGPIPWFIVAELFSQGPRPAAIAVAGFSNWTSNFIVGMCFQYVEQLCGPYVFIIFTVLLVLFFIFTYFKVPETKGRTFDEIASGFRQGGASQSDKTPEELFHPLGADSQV
Source text: Indirect Measurement of GLUT Activity by Quantification of Intracellular ATP Levels
It is well known that a combination of small-molecule inhibitors of mitochondrial electron transport chain and glucose catabolism synergistically suppress ATP production and impair cellular viability (Ulanovskaya et al., 2008, 2011; Liu, et al. 2001). We therefore used DLD1 or CHO-K1 cells in combination with an oxidative phosphorylation inhibitor to identify GLUT inhibitors. Cell lines were maintained in DMEM medium supplemented with 10% FCS and 1% Penicillin-Streptomycin solution and 2% Glutamax. The cells were treated with trypsin and seeded into 384 plates at a density of 4000 cells/well. The cells were then cultured overnight in glucose free media containing 1% FCS to reduce intracellular ATP levels. After 24 h the cells were incubated at 37° C. containing the appropriate glucose or in case of GLUT2 fructose concentration (1 mM and 30 mM respectively) with or without compounds and 1 uM Rotenone for 15 min. The CellTiter-Glo® Luminescent Cell Viability Assay from Promega was then used to measure ATP levels. Compounds able to reduce the ATP levels within 15 min of glucose application were considered to be glucose uptake inhibitors.

| Compound | IC50 [nM] |
| --- | --- |
| Cc1c(NC(=O)c2cc(C3CC3)nc3ccc(Br)cc23)cnn1Cc1ccc(C#N)cc1 [Example 23, 6-bromo-N-[1-(4-cyanobenzyl)-5-methyl-1H-pyrazol-4-yl]-2-cyclopropylquinoline-4-carboxamide] | 2.9 |
| CNC(=O)c1nc(Cn2ncc(NC(=O)c3cc(C(F)(F)F)nc4ccc(Br)cc34)c2C)no1 [Example 40, 6-bromo-N-(5-methyl-1-{[5-(methylcarbamoyl)-1,2,4-oxadiazol-3-yl]methyl}-1H-pyrazol-4-yl)-2-(trifluoromethyl)quinoline-4-carboxamide] | 456 |
| Cc1c(NC(=O)c2cc(C(F)(F)F)nc3ccc(Br)cc23)cnn1Cc1ccc(F)cc1 [Example 4, 6-bromo-N-[1-(4-fluorobenzyl)-5-methyl-1H-pyrazol-4-yl]-2-(trifluoromethyl)quinoline-4-carboxamide] | 12 |
| CNC(=O)c1c(NC(=O)c2cc(C(F)(F)F)nc3ccc(Br)cc23)cnn1Cc1ccc(C#N)cc1 [Example 21, 6-bromo-N-[1-(4-cyanobenzyl)-5-(methylcarbamoyl)-1H-pyrazol-4-yl]-2-(trifluoromethyl)quinoline-4-carboxamide] | 3960 |
| COC(=O)c1c(NC(=O)c2cc(C(F)(F)F)nc3ccc(Br)cc23)cnn1Cc1ccc(C#N)cc1 [Example 19, methyl 4-({[6-bromo-2-(trifluoromethyl)quinolin-4-yl]carbonyl}amino)-1-(4-cyanobenzyl)-1H-pyrazole-5-carboxylate] | 1070 |
| Cc1c(NC(=O)c2cc(C(F)(F)F)nc3cc(F)c(F)cc23)cnn1Cc1ccc(F)cc1 [Example 2, 6,7-difluoro-N-[1-(4-fluorobenzyl)-5-methyl-1H-pyrazol-4-yl]-2-(trifluoromethyl)quinoline-4-carboxamide] | 124 |
| Cc1c(NC(=O)c2cc(C(F)(F)F)nc3ccc(Br)cc23)cnn1Cc1ccn(C)n1 [Example 44, 6-bromo-N-{5-methyl-1-[(1-methyl-1H-pyrazol-3-yl)methyl]-1H-pyrazol-4-yl}-2-(trifluoromethyl)quinoline-4-carboxamide] | 531 |
| Cc1c(NC(=O)c2cc(C(F)(F)F)nc3ccc(Br)cc23)cnn1Cc1ccc(C#N)cc1 [Example 8, 6-bromo-N-[1-(4-cyanobenzyl)-5-methyl-1H-pyrazol-4-yl]-2-(trifluoromethyl)quinoline-4-carboxamide] | 12 |
| Cc1cc(Cn2ncc(NC(=O)c3cc(C(N)=O)nc4ccccc34)c2C)no1 [Example 45, N^4-{5-methyl-1-[(5-methyl-1,2-oxazol-3-yl)methyl]-1H-pyrazol-4-yl}quinoline-2,4-dicarboxamide] | 222 |
| N#Cc1ccc(Cn2ncc(NC(=O)c3cc(C(F)(F)F)nc4ccc(Br)cc34)c2C(=O)O)cc1 [Example 20, 4-({[6-bromo-2-(trifluoromethyl)quinolin-4-yl]carbonyl}amino)-1-(4-cyanobenzyl)-1H-pyrazole-5-carboxylic acid] | 10200 |
| Cc1c(NC(=O)c2cc(C(N)=O)nc3ccccc23)cnn1Cc1ccn(C)n1 [Example 34, N^4-{5-methyl-1-[(1-methyl-1H-pyrazol-3-yl)methyl]-1H-pyrazol-4-yl}quinoline-2,4-dicarboxamide] | 753 |
| Cc1c(NC(=O)c2cc(C(N)=O)nc3cc(F)c(Cl)cc23)cnn1Cc1ccc(C#N)cc1 [Example 25, 6-chloro-N^4-[1-(4-cyanobenzyl)-5-methyl-1H-pyrazol-4-yl]-7-fluoroquinoline-2,4-dicarboxamide] | 6.5 |
| Cc1c(NC(=O)c2cc(C3CC3)nc3ccc(F)cc23)cnn1Cc1ccc(F)cc1 [Example 6, 2-cyclopropyl-6-fluoro-N-[1-(4-fluorobenzyl)-5-methyl-1H-pyrazol-4-yl]quinoline-4-carboxamide] | 91 |
| Cc1c(NC(=O)c2cc(C(F)(F)F)nc3c(Cl)cc(Cl)cc23)cnn1Cc1ccc(F)cc1 [Example 7, 6,8-dichloro-N-[1-(4-fluorobenzyl)-5-methyl-1H-pyrazol-4-yl]-2-(trifluoromethyl)quinoline-4-carboxamide] | 185 |
| Cc1nc(Cn2ncc(NC(=O)c3cc(C(F)(F)F)nc4ccc(Br)cc34)c2C)cs1 [Example 41, 6-bromo-N-{5-methyl-1-[(2-methyl-1,3-thiazol-4-yl)methyl]-1H-pyrazol-4-yl}-2-(trifluoromethyl)quinoline-4-carboxamide] | 284 |
| CCc1noc(Cn2ncc(NC(=O)c3cc(C(N)=O)nc4ccccc34)c2C)n1 [Example 37, N^4-{1-[(3-ethyl-1,2,4-oxadiazol-5-yl)methyl]-5-methyl-1H-pyrazol-4-yl}quinoline-2,4-dicarboxamide] | 1920 |
| COc1ccc(Cn2ncc(NC(=O)c3cc(C(F)(F)F)nc4ccc(Br)cc34)c2C)cc1 [Example 12, 6-bromo-N-[1-(4-methoxybenzyl)-5-methyl-1H-pyrazol-4-yl]-2-(trifluoromethyl)quinoline-4-carboxamide] | 4 |
| COc1cc(C(=O)Nc2cnn(Cc3ccc(F)cc3)c2C)c2ccccc2n1 [Example 3, N-[1-(4-fluorobenzyl)-5-methyl-1H-pyrazol-4-yl]-2-methoxyquinoline-4-carboxamide] | 152 |
| N#Cc1ccc(Cn2ncc(NC(=O)c3cc(C(F)(F)F)nc4ccc(Br)cc34)c2C(N)=O)cc1 [Example 22, 6-bromo-N-[5-carbamoyl-1-(4-cyanobenzyl)-1H-pyrazol-4-yl]-2-(trifluoromethyl)quinoline-4-carboxamide] | 387 |
| CCc1noc(Cn2ncc(NC(=O)c3cc(C(F)(F)F)nc4ccc(Br)cc34)c2C)n1 [Example 35, 6-bromo-N-{1-[(3-ethyl-1,2,4-oxadiazol-5-yl)methyl]-5-methyl-1H-pyrazol-4-yl}-2-(trifluoromethyl)quinoline-4-carboxamide] | 1200 |
| CCc1c(NC(=O)c2cc(C(N)=O)nc3ccccc23)cnn1Cc1ccc(C#N)cc1 [Example 31, N^4-[1-(4-cyanobenzyl)-5-ethyl-1H-pyrazol-4-yl]quinoline-2,4-dicarboxamide] | 201 |
| Cc1c(NC(=O)c2cc(C(N)=O)nc3ccccc23)cnn1CC1CCCCC1 [Example 28, N^4-[1-(cyclohexylmethyl)-5-methyl-1H-pyrazol-4-yl]quinoline-2,4-dicarboxamide] | 349 |
| Cc1c(NC(=O)c2cc(C(N)=O)nc3ccccc23)cnn1Cc1cccc(F)c1 [Example 27, N^4-[1-(3-fluorobenzyl)-5-methyl-1H-pyrazol-4-yl]quinoline-2,4-dicarboxamide] | 52 |
| Cc1c(NC(=O)c2cc(C(N)=O)nc3ccccc23)cnn1Cc1ccc(F)cc1 [Example 5, N^4-[1-(4-fluorobenzyl)-5-methyl-1H-pyrazol-4-yl]quinoline-2,4-dicarboxamide] | 18 |
| COc1ccc(Cn2ncc(NC(=O)c3cc(C(N)=O)nc4ccccc34)c2C)cc1 [Example 13, N^4-[1-(4-methoxybenzyl)-5-methyl-1H-pyrazol-4-yl]quinoline-2,4-dicarboxamide] | 2.2 |
| O=C(Nc1cnn(Cc2ccc(F)cc2)c1C(=O)O)c1cc(C(F)(F)F)nc2ccc(Br)cc12 [Example 17, 4-({[6-bromo-2-(trifluoromethyl)quinolin-4-yl]carbonyl}amino)-1-(4-fluorobenzyl)-1H-pyrazole-5-carboxylic acid] | 10200 |
| Cc1c(NC(=O)c2cc(C(N)=O)nc3ccccc23)cnn1Cc1ccccc1C#N [Example 15, N^4-[1-(2-cyanobenzyl)-5-methyl-1H-pyrazol-4-yl]quinoline-2,4-dicarboxamide] | 755 |
| Cc1c(NC(=O)c2cc(C(F)(F)F)nc3ccc(Br)cc23)cnn1Cc1ccccc1C#N [Example 14, 6-bromo-N-[1-(2-cyanobenzyl)-5-methyl-1H-pyrazol-4-yl]-2-(trifluoromethyl)quinoline-4-carboxamide] | 173 |
| Cc1nc(Cn2ncc(NC(=O)c3cc(C(N)=O)nc4ccccc34)c2C)cs1 [Example 39, N^4-{5-methyl-1-[(2-methyl-1,3-thiazol-4-yl)methyl]-1H-pyrazol-4-yl}quinoline-2,4-dicarboxamide] | 517 |
| CCS(=O)(=O)N1CCC(Cn2ncc(NC(=O)c3cc(C(F)(F)F)nc4ccc(Br)cc34)c2C)CC1 [Example 38, 6-bromo-N-(1-{[1-(ethylsulfonyl)piperidin-4-yl]methyl}-5-methyl-1H-pyrazol-4-yl)-2-(trifluoromethyl)quinoline-4-carboxamide] | 615 |
